The test addresses Excitatory amino acid transporter 1 (Homo sapiens, UniProt P43003). As to the kind of experiment: Inhibition of human EAAT1 expressed in HEK293 cells by [3H]D-Asp uptake assay.

Bounds are passed on as bounds.

Excitatory amino acid transporter 1, sequence (P43003 whole entry): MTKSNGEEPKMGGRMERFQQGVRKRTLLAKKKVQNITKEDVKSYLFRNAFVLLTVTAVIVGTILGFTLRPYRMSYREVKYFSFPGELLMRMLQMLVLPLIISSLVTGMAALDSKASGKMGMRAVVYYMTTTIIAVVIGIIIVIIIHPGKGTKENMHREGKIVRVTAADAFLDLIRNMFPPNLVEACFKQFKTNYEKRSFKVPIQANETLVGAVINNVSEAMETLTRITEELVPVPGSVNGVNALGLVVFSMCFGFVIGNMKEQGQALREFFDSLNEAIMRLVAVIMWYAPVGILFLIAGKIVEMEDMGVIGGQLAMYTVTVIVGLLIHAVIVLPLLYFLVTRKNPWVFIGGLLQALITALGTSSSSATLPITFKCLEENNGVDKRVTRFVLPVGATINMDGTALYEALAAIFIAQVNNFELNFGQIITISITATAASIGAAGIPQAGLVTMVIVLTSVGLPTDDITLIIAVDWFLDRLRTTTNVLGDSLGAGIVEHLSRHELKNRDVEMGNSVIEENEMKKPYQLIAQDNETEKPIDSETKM

`N=C1OC2=C(C(=O)CC(c3ccccc3)C2)C(c2ccccc2)C1C(N)=O` (stereo not drawn) [2-Amino-5-oxo-4,7-diphenyl-5,6,7,8-tetrahydro-4H-chromene-3-carboxamide]: the IC50 was greater than 100 µM.
The value for `CC1CC(=O)C2=C(C1)OC(=N)C(C#N)C2c1ccc2c(c1)OCO2` (stereo not drawn) [2-amino-4-(benzo[d][1,3]dioxol-5-yl)-7-methyl-5-oxo-5,6,7,8-tetrahydro-4H-chromene-3-carbonitrile] was greater than 316 µM; that for `N#CC1C(=N)OC2=C(C(=O)O[C@H](c3ccccc3)C2)[C@@H]1c1ccccc1` (relative stereo) [anti-2-Amino-5-oxo-4,7-diphenyl-4,5,7,8-tetrahydropyrano[4,3-b]-pyran-3-carbonitril] was greater than 300 µM.
For `N#CC1C(=N)OC2=C(C(=O)N[C@@H](c3ccccc3)C2)[C@@H]1c1ccccc1` (relative stereo) [syn-2-amino-5-oxo-4,7-diphenyl-5,6,7,8-tetrahydro-4H-pyrano[3,2-c]pyridine-3-carbonitrile] the value was greater than 300 µM; for `N#CC1C(=N)OC2=C(C(=O)N[C@H](c3ccccc3)C2)[C@@H]1c1ccccc1` (relative stereo) [anti-2-Amino-5-oxo-4,7-diphenyl-5,6,7,8-tetrahydro-4H-pyrano-[3,2-c]pyridine-3-carbonitrile], greater than 316 µM; for `N#CC1C(=N)OC2=C(C(=O)O[C@@H](c3ccccc3)C2)[C@@H]1c1ccccc1` (relative stereo) [syn-2-Amino-5-oxo-4,7-diphenyl-4,5,7,8-tetrahydropyrano[4,3-b]-pyran-3-carbonitrile], greater than 300 µM.
For `N=C1CC(c2ccccc2)C2=C(CC(c3ccccc3)CC2=O)O1` (stereo not drawn) [2-Amino-4,7-diphenyl-7,8-dihydro-4H-chromen-5(6H)-one] the value was greater than 100 µM; for `COC(=O)C1C(=N)OC2=C(C(=O)CC(c3ccccc3)C2)C1c1ccccc1` (stereo not drawn) [Methyl2-Amino-5-oxo-4,7-diphenyl-5,6,7,8-tetrahydro-4Hchromene-3-carboxylate], greater than 300 µM.

Broadly, the IC50 is the point on the concentration scale where inhibition reaches its midpoint.
